Reference: patent US20260226068A1, “IMIDAZOTRIAZINE IL-17A MODULATORS AND USES THEREOF” (DICE ALPHA, INC., priority 2023, published 2026)

Key:
[1] = biological target: T1, IL-17A/A (Homo sapiens, UniProt Q16552); test: IL-17A/A HEK-Blue cell assay (SEAP reporter); format: cell-based; conditions: HEK-Blue IL-17A reporter cells, IL17A/A 5 ng/mL, 20 hours, SEAP read at A630; read-out: HEK-Blue IL17AA (IC50 for IL-17A/A inhibition)
T1 construct: purchased Genscript Z03228
T1 sequence (Q16552 24-155): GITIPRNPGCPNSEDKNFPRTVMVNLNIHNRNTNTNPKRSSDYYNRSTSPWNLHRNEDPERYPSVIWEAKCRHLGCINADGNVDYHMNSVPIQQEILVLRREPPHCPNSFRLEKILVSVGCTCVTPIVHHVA

[2] = biological target: T2, IL-17A/F (Homo sapiens, UniProt Q16552+Q96PD4); test: IL-17A/F HEK-Blue cell assay (SEAP reporter); format: cell-based; conditions: HEK-Blue IL-17A reporter cells, IL17A/F 5 ng/mL, 20 hours, SEAP read at A630; read-out: HEK-Blue IL17AF (IC50 for IL-17A/F inhibition)
T2 construct: purchased R&D Systems
T2 sequence (Q16552 24-155): T1 sequence (Q16552 24-155)
T2 sequence (Q96PD4 31-163): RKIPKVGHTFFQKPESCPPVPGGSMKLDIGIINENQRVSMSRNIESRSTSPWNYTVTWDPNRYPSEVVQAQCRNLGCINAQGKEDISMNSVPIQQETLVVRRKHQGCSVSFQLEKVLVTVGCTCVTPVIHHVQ

| SMILES | IC50 [1] | IC50 [2] |
| --- | --- | --- |
| CCn1nccc1C(=O)N[C@H](c1cn2nc(C[C@H]3C[C@@H](C(F)(F)F)CNC3=O)c(C3CCn4nccc4C3)nc2n1)C1CCC(F)(F)CC1 (stereo partly drawn) [Compound 358, N-((1S)-(4,4-difluorocyclohexyl)(2-(((3R,5R)-2-oxo-5-(trifluoromethyl)piperidin-3-yl)methyl)-3-(4,5,6,7-tetrahydropyrazolo[1,5-a]pyridin-5-yl)imidazo[1,2-b][1,2,4]triazin-6-yl)methyl)-1-ethyl-1H-pyrazole-5-carboxamide] | < 100 nM | 100 to 1000 nM |
| CCn1nccc1C(=O)N[C@H](c1cn2nc(C[C@H]3C[C@@H](C(F)(F)F)CNC3=O)c(CCN3CCOCC3)nc2n1)C1CCC(F)(F)CC1 [Compound 359] | < 100 nM | 100 to 1000 nM |
| CCn1nccc1C(=O)N[C@H](c1cn2nc(C[C@H]3C[C@@H](C(F)(F)F)CNC3=O)c(N3CC4CC(C3)N4C)nc2n1)C1CCC(F)(F)CC1 [Compound 360, N-((1S)-(4,4-difluorocyclohexyl)(3-(6-methyl-3,6-diazabicyclo[3.1.1]heptan-3-yl)-2-(((3R,5R)-2-oxo-5-(trifluoromethyl)piperidin-3-yl)methyl)imidazo[1,2-b][1,2,4]triazin-6-yl)methyl)-1-ethyl-1H-pyrazole-5-carboxamide] | 100 to 1000 nM | 100 to 1000 nM |
| CCn1nccc1C(=O)N[C@H](c1cn2nc(C[C@H]3C[C@@H](C(F)(F)F)CNC3=O)c(N3CC4CCC(C3)N4C)nc2n1)C1CCC(F)(F)CC1 [Compound 361, N-((1S)-(4,4-difluorocyclohexyl)(3-(8-methyl-3,8-diazabicyclo[3.2.1]octan-3-yl)-2-(((3R,5R)-2-oxo-5-(trifluoromethyl)piperidin-3-yl)methyl)imidazo[1,2-b][1,2,4]triazin-6-yl)methyl)-1-ethyl-1H-pyrazole-5-carboxamide] | < 100 nM | 100 to 1000 nM |
| CN(C)CCn1nccc1C(=O)N[C@H](c1cn2nc(C[C@H]3C[C@@H](C(F)(F)F)CNC3=O)c(C3CCOCC3)nc2n1)C1CCC(F)(F)CC1 [Compound 362, N—((S)-(4,4-difluorocyclohexyl)(2-(((3R,5R)-2-oxo-5-(trifluoromethyl)piperidin-3-yl)methyl)-3-(tetrahydro-2H-pyran-4-yl)imidazo[1,2-b][1,2,4]triazin-6-yl)methyl)-1-(2-(dimethylamino)ethyl)-1H-pyrazole-5-carboxamide] | 100 to 1000 nM | > 1000 nM |
| CCn1ncnc1C(=O)N[C@H](c1cn2nc(C[C@H]3C[C@@H](C(F)(F)F)CNC3=O)c(C3CCOCC3)nc2n1)C1CCC(F)(F)CC1 [Compound 363, N—((S)-(4,4-difluorocyclohexyl)(2-(((3R,5R)-2-oxo-5-(trifluoromethyl)piperidin-3-yl)methyl)-3-(tetrahydro-2H-pyran-4-yl)imidazo[1,2-b][1,2,4]triazin-6-yl)methyl)-1-ethyl-1H-1,2,4-triazole-5-carboxamide] | < 100 nM | > 1000 nM |
| CCn1nncc1C(=O)N[C@H](c1cn2nc(C[C@H]3C[C@@H](C(F)(F)F)CNC3=O)c(C3CCOCC3)nc2n1)C1CCC(F)(F)CC1 [Compound 364, N—((S)-(4,4-difluorocyclohexyl)(2-(((3R,5R)-2-oxo-5-(trifluoromethyl)piperidin-3-yl)methyl)-3-(tetrahydro-2H-pyran-4-yl)imidazo[1,2-b][1,2,4]triazin-6-yl)methyl)-1-ethyl-1H-1,2,3-triazole-5-carboxamide] | < 100 nM | > 1000 nM |
| CCn1nccc1C(=O)N[C@H](c1cn2nc(C[C@H]3C[C@@H](C(F)(F)F)CNC3=O)c(N3CCOC(C)(C)C3)nc2n1)C1CCC(F)(F)CC1 [Compound 365, N—((S)-(4,4-difluorocyclohexyl)(3-(2,2-dimethylmorpholino)-2-(((3R,5R)-2-oxo-5-(trifluoromethyl)piperidin-3-yl)methyl)imidazo[1,2-b][1,2,4]triazin-6-yl)methyl)-1-ethyl-1H-pyrazole-5-carboxamide] | < 100 nM | 100 to 1000 nM |
| CCn1nccc1C(=O)N[C@H](c1cn2nc(C[C@H]3C[C@@H](C(F)(F)F)CNC3=O)c(N3CCN4CCOC[C@@H]4C3)nc2n1)C1CCC(F)(F)CC1 [Compound 366, N—((S)-(4,4-difluorocyclohexyl)(3-((S)-hexahydropyrazino[2,1-c][1,4]oxazin-8(1H)-yl)-2-(((3R,5R)-2-oxo-5-(trifluoromethyl)piperidin-3-yl)methyl)imidazo[1,2-b][1,2,4]triazin-6-yl)methyl)-1-ethyl-1H-pyrazole-5-carboxamide] | < 100 nM | < 100 nM |
| CCn1nccc1C(=O)N[C@H](c1cn2nc(C[C@H]3C[C@@H](C(F)(F)F)CNC3=O)c(N3CCN4CCCC[C@@H]4C3)nc2n1)C1CCC(F)(F)CC1 [Compound 367, N—((S)-(4,4-difluorocyclohexyl)(3-((R)-octahydro-2H-pyrido[1,2-a]pyrazin-2-yl)-2-(((3R,5R)-2-oxo-5-(trifluoromethyl)piperidin-3-yl)methyl)imidazo[1,2-b][1,2,4]triazin-6-yl)methyl)-1-ethyl-1H-pyrazole-5-carboxamide] | < 100 nM | < 100 nM |
| CCn1nccc1C(=O)N[C@H](c1cn2nc(C[C@H]3C[C@@H](C(F)(F)F)CNC3=O)c(N3CCN4CCC[C@@H]4C3)nc2n1)C1CCC(F)(F)CC1 [Compound 368, N—((S)-(4,4-difluorocyclohexyl)(3-((R)-hexahydropyrrolo[1,2-a]pyrazin-2(1H)-yl)-2-(((3R,5R)-2-oxo-5-(trifluoromethyl)piperidin-3-yl)methyl)imidazo[1,2-b][1,2,4]triazin-6-yl)methyl)-1-ethyl-1H-pyrazole-5-carboxamide] | < 100 nM | 100 to 1000 nM |
| CCn1nccc1C(=O)N[C@H](c1cn2nc(C[C@H]3C[C@@H](C(F)(F)F)CNC3=O)c(C3CCCCN3CCOC)nc2n1)C1CCC(F)(F)CC1 (stereo partly drawn) [Compound 369, N-((1S)-(4,4-difluorocyclohexyl)(3-(1-(2-methoxyethyl)piperidin-2-yl)-2-(((3R,5R)-2-oxo-5-(trifluoromethyl)piperidin-3-yl)methyl)imidazo[1,2-b][1,2,4]triazin-6-yl)methyl)-1-ethyl-1H-pyrazole-5-carboxamide] | 100 to 1000 nM | > 1000 nM |
| CCn1nccc1C(=O)N[C@H](c1cn2nc(C[C@H]3C[C@@H](C(F)(F)F)CNC3=O)c(C3CCN(CCOC)C3)nc2n1)C1CCC(F)(F)CC1 (stereo partly drawn) [Compound 370, N-((1S)-(4,4-difluorocyclohexyl)(3-(1-(2-methoxyethyl)pyrrolidin-3-yl)-2-(((3R,5R)-2-oxo-5-(trifluoromethyl)piperidin-3-yl)methyl)imidazo[1,2-b][1,2,4]triazin-6-yl)methyl)-1-ethyl-1H-pyrazole-5-carboxamide] | 100 to 1000 nM | > 1000 nM |
| CCn1nccc1C(=O)N[C@H](c1cn2nc(C[C@H]3C[C@@H](C(F)(F)F)CNC3=O)c(CN3CCC(F)CC3)nc2n1)C1CCC(F)(F)CC1 [Compound 371, N—((S)-(4,4-difluorocyclohexyl)(3-((4-fluoropiperidin-1-yl)methyl)-2-(((3R,5R)-2-oxo-5-(trifluoromethyl)piperidin-3-yl)methyl)imidazo[1,2-b][1,2,4]triazin-6-yl)methyl)-1-ethyl-1H-pyrazole-5-carboxamide] | < 100 nM | 100 to 1000 nM |
| O=C(N[C@H](c1cn2nc(C[C@H]3C[C@@H](C(F)(F)F)CNC3=O)c(C3CCOCC3)nc2n1)C1CCC(F)(F)CC1)c1nonc1OCC(F)(F)F [Compound 372, N—((S)-(4,4-difluorocyclohexyl)(2-(((3R,5R)-2-oxo-5-(trifluoromethyl)piperidin-3-yl)methyl)-3-(tetrahydro-2H-pyran-4-yl)imidazo[1,2-b][1,2,4]triazin-6-yl)methyl)-4-(2,2,2-trifluoroethoxy)-1,2,5-oxadiazole-3-carboxamide] | < 100 nM | 100 to 1000 nM |
| O=C(N[C@H](c1cn2nc(C[C@H]3C[C@@H](C(F)(F)F)CNC3=O)c(C3CCOCC3)nc2n1)C1CCC(F)(F)CC1)c1nonc1CN1CC(F)C1 [Compound 373, N—((S)-(4,4-difluorocyclohexyl)(2-(((3R,5R)-2-oxo-5-(trifluoromethyl)piperidin-3-yl)methyl)-3-(tetrahydro-2H-pyran-4-yl)imidazo[1,2-b][1,2,4]triazin-6-yl)methyl)-4-((3-fluoroazetidin-1-yl)methyl)-1,2,5-oxadiazole-3-carboxamide] | < 100 nM | 100 to 1000 nM |
| CCn1nccc1C(=O)N[C@H](c1cn2nc(C[C@H]3C[C@@H](C(F)(F)F)CNC3=O)c(CN3CCOCC3)nc2n1)[C@H]1CC[C@H](C)CC1 [Compound 374, 1-ethyl-N—((S)-((1r,4S)-4-methylcyclohexyl)(3-(morpholinomethyl)-2-(((3R,5R)-2-oxo-5-(trifluoromethyl)piperidin-3-yl)methyl)imidazo[1,2-b][1,2,4]triazin-6-yl)methyl)-1H-pyrazole-5-carboxamide] | < 100 nM | 100 to 1000 nM |
| CCn1nccc1C(=O)N[C@H](c1cn2nc(C[C@H]3C[C@@H](C(F)(F)F)CNC3=O)c(CN3CCC(F)(F)C3)nc2n1)[C@H]1CC[C@H](C)CC1 [Compound 375, N—((S)-(3-((3,3-difluoropyrrolidin-1-yl)methyl)-2-(((3R,5R)-2-oxo-5-(trifluoromethyl)piperidin-3-yl)methyl)imidazo[1,2-b][1,2,4]triazin-6-yl)((1r,4S)-4-methylcyclohexyl)methyl)-1-ethyl-1H-pyrazole-5-carboxamide] | < 100 nM | 100 to 1000 nM |
